Literature values as cited in patent US20250114486A1, “MARKED FATTY ACID DERIVATIVE, PRECURSOR COMPOUND THEREOF, AND USE THEREOF IN CONTRAST AGENT” (BEIJING NORMAL UNIVERSITY, priority 2022, published 2025).
Read-outs that look alike come from different tables or passages of the source.

Conditions: rats, reference 4, cited from earlier work

## CC(CCCCCCCCCCCCc1ccc([123I])cc1)CC(=O)O (centres unmarked) [[^123I]BMIPP]
30 min after injection
  Heart-to-Lungs ratio: 3.16
30 min post-injection
  Heart-to-Blood ratio: 2.27
  absolute myocardial uptake value: 3.63 % ID/g
60 min after injection
  Heart-to-Liver ratio: 2.22
  Heart-to-Lungs ratio: 3.52
60 min post-injection
  Heart-to-Blood ratio: 2.51
  absolute myocardial uptake value: 4.26 % ID/g
240 min after injection
  Heart-to-Liver ratio: 2.39
  Heart-to-Lungs ratio: 2.49
240 min post-injection
  Heart-to-Blood ratio: 2.01
  absolute myocardial uptake value: 2.27 % ID/g
